Consider twelve molecules from ChEMBL document CHEMBL3991601, “The target landscape of clinical kinase drugs” (Science, 2017).

Broadly, the Kd is the free concentration of one partner at which half of the binding sites on the other are occupied at equilibrium, for simple one-to-one binding.

The target in test [1] is Calcium/calmodulin-dependent protein kinase kinase 2 (Homo sapiens, UniProt Q96RR4).
The target in test [2] is T1, Phosphorylase b kinase gamma catalytic chain, liver/testis isoform (Homo sapiens, UniProt P15735).
T1 sequence (P15735 whole entry): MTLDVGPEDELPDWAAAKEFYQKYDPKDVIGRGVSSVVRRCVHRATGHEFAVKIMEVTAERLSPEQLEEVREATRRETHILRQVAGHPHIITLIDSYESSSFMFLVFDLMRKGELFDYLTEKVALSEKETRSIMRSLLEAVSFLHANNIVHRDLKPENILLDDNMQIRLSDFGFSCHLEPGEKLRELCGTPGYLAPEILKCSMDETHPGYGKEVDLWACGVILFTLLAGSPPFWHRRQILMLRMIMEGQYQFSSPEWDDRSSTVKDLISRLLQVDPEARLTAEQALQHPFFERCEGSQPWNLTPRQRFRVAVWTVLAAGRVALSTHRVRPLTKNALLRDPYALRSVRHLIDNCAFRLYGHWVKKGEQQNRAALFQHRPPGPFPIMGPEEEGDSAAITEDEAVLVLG

The target in test [3] is Elongation factor Tu, mitochondrial (Homo sapiens, UniProt P49411).
Test [4] deals with Cyclin-dependent kinase 1 (Homo sapiens, UniProt P06493).
Test [5] has as its target Guanine nucleotide-binding protein G(i) subunit alpha-2 (Homo sapiens, UniProt P04899).
Test [6] has as its target Fibroblast growth factor receptor 1 (Homo sapiens, UniProt P11362).
Test [7] concerns the target T2, ATP-dependent 6-phosphofructokinase, platelet type (Homo sapiens, UniProt Q01813).
T2 sequence (Q01813 whole entry): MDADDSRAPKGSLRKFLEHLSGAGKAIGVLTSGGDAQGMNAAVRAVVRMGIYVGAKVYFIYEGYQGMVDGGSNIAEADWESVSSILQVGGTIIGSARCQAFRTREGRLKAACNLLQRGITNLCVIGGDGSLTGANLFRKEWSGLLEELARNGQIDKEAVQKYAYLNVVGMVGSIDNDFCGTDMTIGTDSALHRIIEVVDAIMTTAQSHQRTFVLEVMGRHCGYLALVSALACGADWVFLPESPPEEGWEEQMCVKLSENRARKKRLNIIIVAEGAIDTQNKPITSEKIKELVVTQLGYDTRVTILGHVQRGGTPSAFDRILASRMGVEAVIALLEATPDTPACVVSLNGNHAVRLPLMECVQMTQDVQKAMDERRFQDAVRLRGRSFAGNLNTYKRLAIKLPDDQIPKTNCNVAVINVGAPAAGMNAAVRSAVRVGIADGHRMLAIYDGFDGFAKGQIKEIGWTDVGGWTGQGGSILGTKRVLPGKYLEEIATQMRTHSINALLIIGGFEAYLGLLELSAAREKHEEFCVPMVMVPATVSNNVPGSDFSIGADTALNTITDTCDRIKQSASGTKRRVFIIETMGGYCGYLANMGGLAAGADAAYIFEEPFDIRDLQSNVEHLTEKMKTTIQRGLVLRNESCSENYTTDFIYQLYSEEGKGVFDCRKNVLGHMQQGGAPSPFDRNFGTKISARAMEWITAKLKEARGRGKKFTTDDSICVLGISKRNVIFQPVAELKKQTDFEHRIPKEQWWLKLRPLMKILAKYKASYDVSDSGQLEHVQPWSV

Test [8] has as its target T3, Serine/threonine-protein kinase D2 (Homo sapiens, UniProt Q9BZL6).
T3 sequence (Q9BZL6 whole entry): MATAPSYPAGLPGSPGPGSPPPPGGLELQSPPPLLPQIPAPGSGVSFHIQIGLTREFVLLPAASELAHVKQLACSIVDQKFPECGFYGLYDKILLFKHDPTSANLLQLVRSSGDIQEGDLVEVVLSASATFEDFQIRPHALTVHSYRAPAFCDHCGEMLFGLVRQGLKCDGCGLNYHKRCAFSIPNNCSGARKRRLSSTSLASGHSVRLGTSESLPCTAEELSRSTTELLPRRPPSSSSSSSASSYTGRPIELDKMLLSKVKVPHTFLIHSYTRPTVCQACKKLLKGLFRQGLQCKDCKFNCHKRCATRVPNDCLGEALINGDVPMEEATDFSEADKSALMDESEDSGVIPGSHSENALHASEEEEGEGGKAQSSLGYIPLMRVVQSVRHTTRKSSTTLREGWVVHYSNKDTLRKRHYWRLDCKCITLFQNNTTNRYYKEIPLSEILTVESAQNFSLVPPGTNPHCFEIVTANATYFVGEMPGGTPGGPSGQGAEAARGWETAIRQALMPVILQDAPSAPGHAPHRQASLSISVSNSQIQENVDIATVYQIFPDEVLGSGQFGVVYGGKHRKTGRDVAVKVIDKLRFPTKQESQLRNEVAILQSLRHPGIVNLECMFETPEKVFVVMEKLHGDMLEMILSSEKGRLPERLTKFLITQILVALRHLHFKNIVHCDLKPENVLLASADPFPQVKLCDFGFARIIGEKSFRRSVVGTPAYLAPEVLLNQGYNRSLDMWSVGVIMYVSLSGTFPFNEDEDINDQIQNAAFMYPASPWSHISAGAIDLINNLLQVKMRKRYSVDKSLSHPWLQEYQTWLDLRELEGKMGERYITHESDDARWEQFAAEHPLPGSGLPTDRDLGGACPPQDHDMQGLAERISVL

Test [9] addresses T4, Cytochrome c1, heme protein, mitochondrial (Homo sapiens, UniProt P08574).
T4 sequence (P08574 whole entry): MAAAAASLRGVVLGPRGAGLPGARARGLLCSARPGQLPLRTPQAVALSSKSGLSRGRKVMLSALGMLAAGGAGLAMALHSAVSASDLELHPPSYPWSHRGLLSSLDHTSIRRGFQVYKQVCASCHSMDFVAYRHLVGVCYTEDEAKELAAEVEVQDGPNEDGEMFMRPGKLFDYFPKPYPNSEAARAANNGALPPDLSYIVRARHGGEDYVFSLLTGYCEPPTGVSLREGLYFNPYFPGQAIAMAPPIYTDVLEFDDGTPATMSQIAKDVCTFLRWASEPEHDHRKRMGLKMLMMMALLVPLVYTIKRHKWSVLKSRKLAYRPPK

Molecules are shown by their SMILES. Active and inactive are the calls of the source. Rule as the data show it, for most assays here: actives have a measured Kd and inactives only a lower limit.
Also: in the data inactive means no Kd found up to 30 µM.

Sequence of Cyclin-dependent kinase 1 (P06493 whole entry): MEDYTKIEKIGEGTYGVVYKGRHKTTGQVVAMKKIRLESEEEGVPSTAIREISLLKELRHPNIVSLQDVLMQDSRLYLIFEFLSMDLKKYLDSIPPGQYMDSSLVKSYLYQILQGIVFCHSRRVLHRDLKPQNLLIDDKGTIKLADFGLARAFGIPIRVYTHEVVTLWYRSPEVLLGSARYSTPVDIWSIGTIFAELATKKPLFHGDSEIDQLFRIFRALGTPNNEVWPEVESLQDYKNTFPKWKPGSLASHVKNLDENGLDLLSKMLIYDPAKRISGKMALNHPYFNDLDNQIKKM
Sequence of Calcium/calmodulin-dependent protein kinase kinase 2 (Q96RR4 whole entry, canonical isoform): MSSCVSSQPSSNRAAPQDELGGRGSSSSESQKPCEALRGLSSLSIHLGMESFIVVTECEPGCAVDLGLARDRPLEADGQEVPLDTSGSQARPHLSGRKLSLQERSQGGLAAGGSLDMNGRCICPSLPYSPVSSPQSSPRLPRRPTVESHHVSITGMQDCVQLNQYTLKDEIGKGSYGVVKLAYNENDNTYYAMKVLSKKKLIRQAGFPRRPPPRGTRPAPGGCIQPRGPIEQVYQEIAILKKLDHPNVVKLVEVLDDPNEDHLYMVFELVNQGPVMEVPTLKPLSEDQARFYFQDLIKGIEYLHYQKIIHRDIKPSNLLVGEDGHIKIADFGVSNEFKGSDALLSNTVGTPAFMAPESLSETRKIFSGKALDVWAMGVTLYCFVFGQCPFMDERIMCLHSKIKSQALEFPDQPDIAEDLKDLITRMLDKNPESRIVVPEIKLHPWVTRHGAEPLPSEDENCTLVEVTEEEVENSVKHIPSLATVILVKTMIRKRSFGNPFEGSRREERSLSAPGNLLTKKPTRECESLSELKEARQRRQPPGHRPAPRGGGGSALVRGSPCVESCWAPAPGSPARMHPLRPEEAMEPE
Sequence of Guanine nucleotide-binding protein G(i) subunit alpha-2 (P04899 whole entry): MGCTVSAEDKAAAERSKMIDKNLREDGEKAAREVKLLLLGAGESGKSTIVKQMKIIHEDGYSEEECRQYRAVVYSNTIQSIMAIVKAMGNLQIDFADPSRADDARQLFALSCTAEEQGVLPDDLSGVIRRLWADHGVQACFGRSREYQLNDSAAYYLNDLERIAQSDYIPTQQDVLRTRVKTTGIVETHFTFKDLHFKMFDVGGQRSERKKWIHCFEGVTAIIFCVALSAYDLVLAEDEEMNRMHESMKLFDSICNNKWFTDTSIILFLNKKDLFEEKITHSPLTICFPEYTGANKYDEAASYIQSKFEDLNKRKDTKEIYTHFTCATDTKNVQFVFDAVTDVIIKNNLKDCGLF
Sequence of Fibroblast growth factor receptor 1 (P11362 whole entry): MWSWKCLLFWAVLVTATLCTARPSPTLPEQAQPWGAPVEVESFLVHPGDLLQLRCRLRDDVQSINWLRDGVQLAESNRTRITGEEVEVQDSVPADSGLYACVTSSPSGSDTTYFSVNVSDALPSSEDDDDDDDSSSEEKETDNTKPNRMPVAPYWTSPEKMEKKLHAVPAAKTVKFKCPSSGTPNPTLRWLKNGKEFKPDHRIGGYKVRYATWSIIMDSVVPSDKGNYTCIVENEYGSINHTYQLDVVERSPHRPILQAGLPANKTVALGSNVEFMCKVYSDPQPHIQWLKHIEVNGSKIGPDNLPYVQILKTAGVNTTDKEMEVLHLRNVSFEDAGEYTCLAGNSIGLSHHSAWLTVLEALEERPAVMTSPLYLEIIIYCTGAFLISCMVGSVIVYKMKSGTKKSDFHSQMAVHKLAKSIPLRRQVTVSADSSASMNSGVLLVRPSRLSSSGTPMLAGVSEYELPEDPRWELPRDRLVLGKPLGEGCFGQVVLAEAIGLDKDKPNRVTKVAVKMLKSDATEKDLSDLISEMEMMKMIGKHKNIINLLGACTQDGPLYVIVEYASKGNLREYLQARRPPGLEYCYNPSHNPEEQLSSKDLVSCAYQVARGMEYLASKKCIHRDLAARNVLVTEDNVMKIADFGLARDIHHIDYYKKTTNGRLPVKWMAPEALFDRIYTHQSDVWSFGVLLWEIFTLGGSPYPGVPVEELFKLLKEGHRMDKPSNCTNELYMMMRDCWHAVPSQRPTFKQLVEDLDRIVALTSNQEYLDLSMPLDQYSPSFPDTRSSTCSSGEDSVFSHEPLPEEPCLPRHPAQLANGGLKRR

Turning to `NC(=O)c1ccc(N(C(N)=O)c2c(F)cccc2F)nc1-c1ccc(F)cc1F` [VX-702], the Kd in [1], in test [2], in test [3], in [4], in test [5] and in [6] was > 30 µM (inactive) throughout. Besides, the Kd in test [7], in test [8] and in test [9] was > 30 µM (inactive) each time.

With `Cc1cc(C(=O)Nc2cc(Oc3ccc4nc(NC(=O)C5CC5)cn4n3)ccc2C)n(C)n1` [TAK-593], the Kd in test [1], in test [2], in [3], in test [4], in [5] and in test [6] was > 30 µM (inactive) each time. The Kd in test [7], in test [8] and in [9] was > 30 µM (inactive) in each case.

As to `N#CCNC(=O)c1ccc(-c2ccnc(Nc3ccc(N4CCOCC4)cc3)n2)cc1` [MOMELOTINIB], the Kd in test [1], in test [2], in [3], in test [4], in [5] and in [6] was > 30 µM (inactive) in each case. Moreover, the figures for the Kd in [7], in test [8] and in test [9] were > 30 µM (inactive), 0.531 µM (active) and > 30 µM (inactive), respectively.

For the molecule `c1cc(OCCN2CCCCC2)cc(-c2n[nH]c3ccc(-c4nc[nH]n4)cc23)c1` [CC-401], the Kd in [1], in test [2], in [3], in test [4], in test [5] and in test [6] was > 30 µM (inactive) each time. Besides, the figures for the Kd in [7], in test [8] and in test [9] were > 30 µM (inactive), 0.056 µM (active) and > 30 µM (inactive), respectively.

On to `C=CC(=O)Nc1cccc(Nc2nc(Nc3ccc(N4CCN(C(C)=O)CC4)cc3OC)ncc2C(F)(F)F)c1` [ROCILETINIB], for which the Kd in test [1], in test [2], in test [3], in [4], in [5] and in [6] was > 30 µM (inactive) throughout. For the same molecule, the Kd in test [7], in test [8] and in test [9] was > 30 µM (inactive) throughout.

On to `O=c1[nH]c([C@@H]2CCCN2)nc2c1oc1ccc(Cl)cc12`, for which the Kd in test [1], in test [2], in test [3], in test [4], in test [5] and in test [6] was > 30 µM (inactive) each time. Moreover, the Kd in test [7], in test [8] and in [9] was > 30 µM (inactive) throughout.

For `COc1cccc(Nc2ncnn3ccc(CN4CC[C@@H](N)[C@H](O)C4)c23)c1` [BMS-690514], the Kd in test [1] is > 30 µM (inactive); in test [2], 4.62 µM (active); in test [3], > 30 µM (inactive); in test [4] it was > 30 µM (inactive); in test [5], > 30 µM (inactive); in [6], > 30 µM (inactive). The Kd is > 30 µM (inactive) in test [7], 0.14 µM (active) in test [8] and > 30 µM (inactive) in test [9].

With `S=C(NCc1ccc2c(c1)OCO2)N1CCN(c2ncnc3c2oc2ccccc23)CC1` [AMUVATINIB], the Kd in [1], in [2], in [3], in test [4], in test [5] and in test [6] was > 30 µM (inactive) each time. The Kd in test [7], in test [8] and in test [9] was > 30 µM (inactive) throughout.

As for `C=CC(=O)Nc1cc(Nc2nccc(-c3cn(C)c4ccccc34)n2)c(OC)cc1N(C)CCN(C)C` [OSIMERTINIB], the Kd in test [1], in test [2], in test [3], in test [4], in test [5] and in [6] was > 30 µM (inactive) each time. Also, the Kd in [7], in [8] and in test [9] was > 30 µM (inactive) throughout.

As for `Cn1cc(-c2[nH]c3cc(NC(=O)[C@H](N)C4CCCCC4)cc4c3c2C=NNC4=O)cn1`, the Kd in test [1] was > 30 µM (inactive); in test [2] it was > 30 µM (inactive); in [3], > 30 µM (inactive); in [4] it was > 30 µM (inactive); in test [5], > 30 µM (inactive); in [6], 0.192 µM (active). Moreover, the Kd in test [7], in test [8] and in [9] was > 30 µM (inactive) each time.

For `COCCN1CCN(Cc2ccc(-c3n[nH]c4c3C(=O)c3c(NC(=O)NN5CCOCC5)cccc3-4)cc2)CC1` [RGB-286638], the Kd in test [1] was > 30 µM (inactive); in test [2], > 30 µM (inactive); in test [3], > 30 µM (inactive); in [4], 1.34 µM (active); in [5] it was > 30 µM (inactive); in test [6] it was > 30 µM (inactive). Also, the Kd in test [7] was > 30 µM (inactive); in test [8] it was 0.195 µM (active); in test [9], > 30 µM (inactive).

Turning to `O=C(NC[C@H](O)CO)c1ccncc1Nc1ccc(I)cc1F` [PIMASERTIB], the Kd in [1], in test [2], in test [3], in [4], in test [5] and in test [6] was > 30 µM (inactive) each time. Besides, the Kd in test [7], in [8] and in [9] was > 30 µM (inactive) each time.
